Reference: patent publication US8846710B2, “Method of preferentially inducing the biosynthesis of interferon” (3M Innovative Properties Company, priority 2005, dated 2014)

How the values were obtained:
interferon (α) (IFN-α) = assay: Cytokine induction in human cells: IFN-α secreted by PBMC into culture media (ELISA); assay type: cell-based; settings: for Maximal Response (pg/mL) IFN: maximal response in dose response curve, median
Excerpt: (§1) Cytokine Induction in Human Cells
(§2) An in vitro human blood cell system is used to assess cytokine induction. Activity is based on the measurement of interferon (α) and tumor necrosis factor (α) (IFN-α and TNF-α, respectively) secreted into culture media as described by Testerman et. al. in “Cytokine Induction by the Immunomodulators Imiquimod and S-27609”, Journal of Leukocyte Biology, 58, 365-372 (September, 1995).
(§3) Blood Cell Preparation for Culture
(§4) Whole blood from healthy human donors is collected by venipuncture into vacutainer tubes or syringes containing EDTA. Peripheral blood mononuclear cells (PBMC) are separated from whole blood by density gradient centrifugation using HISTOPAQUE-1077 (Sigma, St. Louis, Mo.) or Ficoll-Paque Plus (Amersham Biosciences Piscataway, N.J.). Blood is diluted 1:1 with Dulbecco's Phosphate Buffered Saline (DPBS) or Hank's Balanced Salts Solution (HBSS). Alternately, whole blood is placed in Accuspin (Sigma) or LeucoSep (Oreiner Bio-One, Inc., Longwood, Fla.) centrifuge frit tubes containing density gradient medium. The PBMC layer is collected and washed twice with DPBS or HBSS and re-suspended at 4×10^6 cells/mL in RPMI complete. The PBMC suspension is added to 96 well flat bottom sterile tissue culture plates containing an equal volume of RPMI complete media containing test compound.
(§5) The compounds are solubilized in dimethyl sulfoxide (DMSO). The DMSO concentration should not exceed a final concentration of 1% for addition to the culture wells. The compounds are generally tested at concentrations ranging from 30-0.014 μM. Controls include cell samples with media only, cell samples with DMSO only (no compound), and cell samples with reference compound.
(§6) The solution of test compound is added at 60 μM to the first well containing RPMI complete and serial 3 fold dilutions are made in the wells. The PBMC suspension is then added to the wells in an equal volume, bringing the test compound concentrations to the desired range (usually 30-0.014 μM). The final concentration of PBMC suspension is 2×10^6 cells/mL. The plates are covered with sterile plastic lids, mixed gently and then incubated for 18 to 24 hours at 37° C. in a 5% carbon dioxide atmosphere.
(§7) Following incubation the plates are centrifuged for 10 minutes at 1000 rpm (approximately 200×g) at 4° C. The cell-free culture supernatant is removed and transferred to sterile polypropylene tubes. Samples are maintained at −30 to −70° C. until analysis. The samples are analyzed for IFN-α by ELISA and for TNF-α by IGEN/BioVeris Assay.
(§8) Interferon (α) and Tumor Necrosis Factor (α) Analysis
IFN-α concentration is determined with a human multi-subtype calorimetric sandwich ELISA (Catalog Number 41105) from PBL Biomedical Laboratories, Piscataway, N.J. Results are expressed in pg/mL.
(§9) In total, the data output of the assay consists of concentration values of TNF-α and IFN-α (y-axis) as a function of compound concentration (x-axis).
Analysis of the data has two steps. First, the greater of the mean DMSO (DMSO control wells) or the experimental background (usually 20 pg/mL for IFN-α and 40 pg/mL for TNF-α) is subtracted from each reading. If any negative values result from background subtraction, the reading is reported as “*”, and is noted as not reliably detectable. In subsequent calculations and statistics, “*”, is treated as a zero. Second, all background subtracted values are multiplied by a single adjustment ratio to decrease experiment to experiment variability. The adjustment ratio is the area of the reference compound in the new experiment divided by the expected area of the reference compound based on the past 61 experiments (unadjusted readings). […] The reference compound used is 2-[4-amino-2-ethoxymethyl-6,7,8,9-tetrahydro-α,α-dimethyl-1H-imidazo[4,5-c]quinolin-1-yl]ethanol hydrate (U.S. Pat. No. 5,352,784; Example 91) and the expected area is the sum of the median dose values from the past 61 experiments. […]

[1] = system: tumor necrosis factor (α) (TNF-α); assay: Cytokine induction in human cells: TNF-α secreted by PBMC into culture media (ORIGEN M-Series immunoassay); assay type: cell-based; set-up: key to Maximal Response (pg/mL) TNF / Maximal Response TNF: If any negative values result from background subtraction, the reading is reported as “*”, and is noted as not reliably detectable; settings: for Maximal Response TNF / Maximal Response (pg/mL) TNF: median; for Maximal Response (pg/mL) TNF: maximal response in dose response curve
Excerpt: as §1, §2, §3, §4, §5, §6, §7, §8
The TNF-α concentration is determined by ORIGEN M-Series Immunoassay and read on an IGEN M-8 analyzer from BioVeris Corporation, formerly known as IGEN International, Gaithersburg, Md. The immunoassay uses a human TNF-α capture and detection antibody pair (Catalog Numbers AHC3419 and AHC3712) from Biosource International, Camarillo, Calif. Results are expressed in pg/mL.
as §9
Analysis of the data has two steps. First, the greater of the mean DMSO (DMSO control wells) or the experimental background (usually 20 pg/mL for IFN-α and 40 pg/mL for TNF-α) is subtracted from each reading. If any negative values result from background subtraction, the reading is reported as “*”, and is noted as not reliably detectable. In subsequent calculations and statistics, “*”, is treated as a zero. Second, all background subtracted values are multiplied by a single adjustment ratio to decrease experiment to experiment variability. The adjustment ratio is the area of the reference compound in the new experiment divided by the expected area of the reference compound based on the past 61 experiments (unadjusted readings). […]

[2] = Table 11, human PBMC, median where tested in more than one experiment
[3] = Table 11, human PBMC, * = TNF below experimental background of 40 pg/mL
[4] = Table 7, background-subtracted, reference-adjusted
[5] = Table 8, background-subtracted, reference-adjusted
[6] = Table 12, human PBMC, median where tested in more than one experiment
[7] = Table 12, human PBMC, * = below the experimental background of 40 pg/mL
[8] = Table 9, background-subtracted, reference-adjusted
[9] = Table 10, * = below experimental background level
[10] = Table 9, * = below experimental background level of 40 pg/mL

## Cc1nc2c(N)nc3ccccc3c2n1CCCNS(C)(=O)=O [Aanalog 58]
Interferon (α) (IFN-α); [2]
  Maximal Response IFN: 2778 pg/mL
  Minimum Effective Concentration IFN: 1.11 µM
[1]; [2]
  Minimum Effective Concentration TNF: 30 µM
[1]; [3]
  Maximal Response TNF: *

## Cc1nc2c(N)nc3ccccc3c2n1CC(C)(C)NS(C)(=O)=O [Analog 1, N-[2-(4-Amino-2-methyl-1H-imidazo[4,5-c]quinolin-1-yl)-1,1-dimethylethyl]methanesulfonamide]
Interferon (α) (IFN-α); [4]
  Maximal Response (pg/mL) IFN: 1846 pg/mL
[1]; [4]
  Maximal Response (pg/mL) TNF: 1518 pg/mL

## CCc1nc2c(N)nc3ccccc3c2n1CC(C)(C)NS(C)(=O)=O [Analog 2, N-[2-(4-Amino-2-ethyl-1H-imidazo[4,5-c]quinolin-1-yl)-1,1-dimethylethyl]methanesulfonamide]
Interferon (α) (IFN-α); [4]
  Maximal Response (pg/mL) IFN: 831 pg/mL
Interferon (α) (IFN-α); [2]
  Maximal Response IFN: 1096 pg/mL
[1]; [4]
  Maximal Response (pg/mL) TNF: 3670 pg/mL
[1]; [3]
  Maximal Response TNF: 9675 pg/mL

## CCCc1nc2c(N)nc3ccccc3c2n1CC(C)(C)NS(C)(=O)=O [Analog 3, N-[2-(4-Amino-2-propyl-1H-imidazo[4,5-c]quinolin-1-yl)-1,1-dimethylethyl]methanesulfonamide]
Interferon (α) (IFN-α); [4]
  Maximal Response (pg/mL) IFN: 832 pg/mL
[1]; [4]
  Maximal Response (pg/mL) TNF: 7245 pg/mL
[1]; [3]
  Maximal Response TNF: 9780 pg/mL

## CCOCc1nc2c(N)nc3ccccc3c2n1CC(C)(C)NS(C)(=O)=O [Analog 4, N-[2-(4-Amino-2-ethoxymethyl-1H-imidazo[4,5-c]quinolin-1-yl)-1,1-dimethylethyl]methanesulfonamide]
Interferon (α) (IFN-α); [4]
  Maximal Response (pg/mL) IFN: 889 pg/mL
Interferon (α) (IFN-α); [2]
  Maximal Response IFN: 1138 pg/mL
[1]; [4]
  Maximal Response (pg/mL) TNF: 10125 pg/mL
[1]; [3]
  Maximal Response TNF: 10665 pg/mL

## COCCc1nc2c(N)nc3ccccc3c2n1CC(C)(C)NS(C)(=O)=O [Analog 5, N-{2-[4-Amino-2-(2-methoxyethyl)-1H-imidazo[4,5-c]quinolin-1-yl]-1,1-dimethylethyl}methanesulfonamide]
Interferon (α) (IFN-α); [4]
  Maximal Response (pg/mL) IFN: 825 pg/mL
Interferon (α) (IFN-α); [2]
  Maximal Response IFN: 1308 pg/mL
[1]; [4]
  Maximal Response (pg/mL) TNF: 12518 pg/mL
[1]; [3]
  Maximal Response TNF: 13908 pg/mL

## CCOCc1nc2c(N)nc3cccnc3c2n1CC(C)(C)O [Analog 6, 1-(4-amino-2-ethoxymethyl-1H-imidazo[4,5-c][1,5]naphthyridin-1-yl)-2-methylpropan-2-ol]
Interferon (α) (IFN-α); [5]
  Maximal Response (pg/mL) IFN: 658 pg/mL
Interferon (α) (IFN-α); [6]
  Maximal Response IFN: 1674 pg/mL
[1]; [5]
  Maximal Response (pg/mL) TNF: 4921 pg/mL
[1]; [7]
  Maximal Response TNF: 7275 pg/mL

## COCCc1nc2c(N)nc3cccnc3c2n1CC(C)(C)O [Analog 7, 1-[4-amino-2-(2-methoxyethyl)-1H-imidazo[4,5-c][1,5]naphthyridin-1-yl]-2-methylpropan-2-ol]
Interferon (α) (IFN-α); [5]
  Maximal Response (pg/mL) IFN: 4143 pg/mL
Interferon (α) (IFN-α); [6]
  Maximal Response IFN: 3142 pg/mL
[1]; [5]
  Maximal Response (pg/mL) TNF: 7762 pg/mL
[1]; [7]
  Maximal Response TNF: 7503 pg/mL

## CCc1nc2c(N)nc3cc(-c4cccnc4)ccc3c2n1CC(C)(C)O [Analog 8, 1-(4-amino-2-ethyl-7-pyridin-3-yl-1H-imidazo[4,5-c]quinolin-1-yl)-2-methylpropan-2-ol]
Interferon (α) (IFN-α); [8]
  Maximal Response (pg/mL) IFN: 1118 pg/mL
Interferon (α) (IFN-α); [9]
  Maximal Response (pg/mL) IFN: 1652 pg/mL
[1]; [10]
  Maximal Response (pg/mL) TNF: 3234 pg/mL
[1]; [9]
  Maximal Response (pg/mL) TNF: 3571 pg/mL

## CCCc1nc2c(N)nc3cc(-c4cccnc4)ccc3c2n1CC(C)(C)O [Analog 9, 1-(4-amino-2-propyl-7-pyridin-3-yl-1H-imidazo[4,5-c]quinolin-1-yl)-2-methylpropan-2-ol]
Interferon (α) (IFN-α); [8]
  Maximal Response (pg/mL) IFN: 597 pg/mL
Interferon (α) (IFN-α); [9]
  Maximal Response (pg/mL) IFN: 597 pg/mL
[1]; [10]
  Maximal Response (pg/mL) TNF: 3951 pg/mL
[1]; [9]
  Maximal Response (pg/mL) TNF: 3951 pg/mL

## CCOCc1nc2c(N)nc3cc(-c4cccnc4)ccc3c2n1CC(C)(C)O [Analog 10, 1-(4-amino-2-ethoxymethyl-7-pyridin-3-yl-1H-imidazo[4,5-c]quinolin-1-yl)-2-methylpropan-2-ol]
Interferon (α) (IFN-α); [8]
  Maximal Response (pg/mL) IFN: 840 pg/mL
Interferon (α) (IFN-α); [9]
  Maximal Response (pg/mL) IFN: 840 pg/mL
[1]; [9]
  Maximal Response (pg/mL) TNF: 7867 pg/mL

## Nc1nc2ccccc2c2c1nc(CCO)n2CCCNC(=O)c1cc2ccccc2cn1 [Example 2, N-{3-[4-Amino-2-(2-hydroxyethyl)-1H-imidazo[4,5-c]quinolin-1-yl]propyl}isoquinoline-3-carboxamide]
Interferon (α) (IFN-α); [2]
  Maximal Response IFN: 507 pg/mL

## CC(C)(N)Cn1c(CO)nc2c(N)nc3ccccc3c21 [Example 4, 1-(2-Amino-2-methylpropyl)-2-hydroxymethyl-1H-imidazo[4,5-c]quinolin-4-amine]
Interferon (α) (IFN-α); [2]
  Maximal Response IFN: 1893 pg/mL

## CC(C)(O)Cn1c(CO)nc2c(N)nc3cc(-c4cncc(CO)c4)ccc3c21 [Example 189]
Interferon (α) (IFN-α); [9]
  Maximal Response (pg/mL) IFN: 4357 pg/mL

## CC(C)C(=O)N1CCC(Cn2c(CO)nc3c(N)nc4cc(-c5cccnc5)ccc4c32)CC1 [Example 191]
Interferon (α) (IFN-α); [9]
  Maximal Response (pg/mL) IFN: 969 pg/mL

## Nc1nc2cc(-c3cncc(CO)c3)ccc2c2c1nc(CO)n2CC1CCCCC1 [Example 205]
Interferon (α) (IFN-α); [9]
  Maximal Response (pg/mL) IFN: 1087 pg/mL

## Nc1nc2cc(-c3cccc(C(=O)N4CCOCC4)c3)ccc2c2c1nc(CO)n2CC1CCCCC1 [Example 206]
Interferon (α) (IFN-α); [9]
  Maximal Response (pg/mL) IFN: 1266 pg/mL

## CC(C)NC(=O)NCCn1c(CO)nc2c(N)nc3ccccc3c21 [Example 365, N-{2-[4-amino-2-(hydroxymethyl)-1H-imidazo[4,5-c]quinolin-1-yl]ethyl}-N′-isopropylurea]
Interferon (α) (IFN-α); [2]
  Maximal Response IFN: 1488 pg/mL
